Data: EP0188781A1, “1-Oxa-1-dethia-cephalosporin compounds and antibacterial agent comprising the same” (Merck & Co., Inc., priority 1984, dated 1986)

Assays:
[1] = system: Staphylococcus aureus Smith; experiment: Minimum inhibitory concentration (MIC) in vitro, antibacterial spectrum; format: cell-based
[2] = system: Staphylococcus aureus 209 P JC-1; experiment: as above; format: cell-based
[3] = system: Escherichia coli NIHJ JC-2; experiment: as above; format: cell-based
Escherichia coli GN206 = experiment: as above; format: cell-based
[4] = system: Salmonella typhimurium LT-2; experiment: as above; format: cell-based
Proteus mirabilis GN79 = experiment: as above; format: cell-based
Proteus vulgaris GN76 = experiment: as above; format: cell-based
Proteus rettgeri GN624 = experiment: as above; format: cell-based
[5] = system: Serratia marcescens No. 2; experiment: as above; format: cell-based
[6] = system: Pseudomonas aeruginosa MB3833; experiment: as above; format: cell-based
[7] = system: Pseudomonas aeruginosa MB3829; experiment: as above; format: cell-based
[8] = system: Pseudomonas aeruginosa E-2; experiment: as above; format: cell-based
[9] = system: Streptococcus faecalis ATCC8043; experiment: as above; format: cell-based
[10] = system: Streptococcus faecalis W-73; experiment: as above; format: cell-based
[11] = system: Streptococcus faecalis W-74; experiment: as above; format: cell-based
[12] = system: Streptococcus faecalis W-75; experiment: as above; format: cell-based
Streptococcus faecalis = experiment: Antibacterial activity in vitro, summary in words; format: cell-based; conditions: statement in words on Table 1
Pseudomonas aeruginosa = experiment: Antibacterial activity in vitro, summary in words; format: cell-based; conditions: statement in words on Table 1
Excerpt: Besides, the compounds of Examples 1, 2, 4, 5 and 7 advantageously are also effective against Pseudomonas aeruginosa.

[13] = Concentration in serum after subcutaneous administration to mice, bioassay with Escherichia coli; format: in vivo; conditions: mouse, sc, 25 mg/kg subcutaneously; for concentration at 0.5 h: 1/2 hour; for concentration at 0.25 h: 1/4 hour; for concentration at 5 min: 1/12 hour
Excerpt: For the serum which was separated from the blood samples, the concentration in the serum of the compound administered was bioassayed using Escherichia coli as assay microorganism.

| Minimum inhibitory concentration (MIC) [1] | Minimum inhibitory concentration (MIC) [2] | Minimum inhibitory concentration (MIC) [3] | Minimum inhibitory concentration (MIC) (Escherichia coli GN206) | Minimum inhibitory concentration (MIC) [4] | Minimum inhibitory concentration (MIC) (Proteus mirabilis GN79) | Minimum inhibitory concentration (MIC) (Proteus vulgaris GN76) | Minimum inhibitory concentration (MIC) (Proteus rettgeri GN624) | Minimum inhibitory concentration (MIC) [5] | Minimum inhibitory concentration (MIC) [6] | Minimum inhibitory concentration (MIC) [7] | Minimum inhibitory concentration (MIC) [8] | Minimum inhibitory concentration (MIC) [9] | Minimum inhibitory concentration (MIC) [10] | Minimum inhibitory concentration (MIC) [11] | Minimum inhibitory concentration (MIC) [12] | concentration at 0.5 h [13] [ng/mL] | concentration at 0.25 h [13] [ng/mL] | SMILES | effective against Streptococcus faecalis (Streptococcus faecalis) | effective against Pseudomonas aeruginosa (Pseudomonas aeruginosa) | other results |
| --- | --- | --- | --- | --- | --- | --- | --- | --- | --- | --- | --- | --- | --- | --- | --- | --- | --- | --- | --- | --- | --- |
| 3.13 | 1.56 | 0.10 | 1.56 | 0.10 | 0.78 | 0.025 | 0.78 | 0.39 | 3.13 | 1.56 | 3.13 | 50 | 25 | 6.25 | 3.13 | 25000 | 44000 | CCN1CCN(C(=O)NC(C(=O)N[C@@H]2C(=O)N3C(C(=O)O)=C(CSc4nc(=O)c(O)nn4C)[C@H](C)O[C@H]23)c2csc(N)n2)C(=O)C1=O (single isomer, unassigned) [Compound No. 5] | effective | effective | concentration at 5 min [13]: 24000 ng/mL; concentration at 1 h [13]: 10000 ng/mL |
| 1.56 | 0.78 | 0.10 | 0.78 | 0.05 | 0.025 | 0.10 | 0.78 | 0.39 | 6.25 | 6.25 | 12.5 | 6.25 | 50 | 6.25 | 0.20 | 41000 | 47700 | CO/N=C(\C(=O)N[C@@H]1C(=O)N2C(C(=O)O)=C(CSc3nc(=O)c(O)nn3C)[C@H](C)O[C@H]12)c1csc(N)n1 [Compound No. 1, (6R,7R)-7[(Z)-2-(2-aminothiazol-4-yl)-2-(methoxyimino)acetamido]-(2S)-2-methyl-3-(2,5-dihydro-6-hydroxy-2-methyl-5-oxo-1,2,4-triazin-3-yl)thiomethyl-l-oxa-l-dethia-ceph-3-em-4-carboxylic acid] | effective | effective | concentration at 5 min [13]: 27000 ng/mL; concentration at 1 h [13]: 24800 ng/mL |
